US7109354B2, “Thiophene amidines, compositions thereof, and methods of treating complement-mediated diseases and conditions” (3-Dimensional Pharmaceuticals, Inc., priority 2002, dated 2006)
Structures can show the parent of a compound that is named as a salt.

The compounds below were run against T1, Activated human C1s (Homo sapiens, UniProt P09871) (assay: In vitro inhibition of C1s (Ki determination, C1s-catalyzed hydrolysis of Z-Gly-Arg-S-Bzl, DTNB readout)). Settings: substrate Z-Gly-Arg-S-Bzl 45 μM, DTNB 200 μM, C1s 2.3 nM, pH 7.5, 37° C., absorbance at 405 nm.
T1 construct: purchased Calbiochem (La Jolla, Calif.)
T1 sequence (P09871 438-688 limits assumed): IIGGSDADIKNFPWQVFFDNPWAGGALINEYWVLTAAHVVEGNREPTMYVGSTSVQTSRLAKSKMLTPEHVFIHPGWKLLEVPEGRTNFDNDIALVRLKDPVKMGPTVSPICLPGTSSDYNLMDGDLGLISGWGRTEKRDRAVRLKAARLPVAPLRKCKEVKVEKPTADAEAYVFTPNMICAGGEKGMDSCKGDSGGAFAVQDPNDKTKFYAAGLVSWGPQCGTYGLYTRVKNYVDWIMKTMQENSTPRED
T1 sequence (P09871 16-437 partner limits assumed): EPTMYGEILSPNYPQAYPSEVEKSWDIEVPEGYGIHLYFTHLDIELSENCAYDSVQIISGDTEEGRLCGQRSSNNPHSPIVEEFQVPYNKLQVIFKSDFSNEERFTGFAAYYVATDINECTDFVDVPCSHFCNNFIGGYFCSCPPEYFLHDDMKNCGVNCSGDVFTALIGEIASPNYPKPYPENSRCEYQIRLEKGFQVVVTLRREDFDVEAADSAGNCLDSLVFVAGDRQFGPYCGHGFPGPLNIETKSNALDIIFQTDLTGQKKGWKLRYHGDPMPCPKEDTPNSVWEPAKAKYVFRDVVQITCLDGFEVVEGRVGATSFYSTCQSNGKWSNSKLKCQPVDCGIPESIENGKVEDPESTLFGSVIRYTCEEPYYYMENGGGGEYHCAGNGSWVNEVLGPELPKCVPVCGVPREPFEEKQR
Type: biochemical
Procedure: Reagents: All buffer salts were obtained from Sigma Chemical Company (St. Louis, Mo.), and were of the highest purity available. DTNB was purchased from Pierce (Rockford, Ill.). Z-Gly-Arg-S-Bzl was purchased from Enzyme Systems Products (Livermore, Calif.). Activated human C1s was purchased from Calbiochem (La Jolla, Calif.).
Test compounds are prepared as a 10 μM solution in DMSO. Dilutions are prepared in DMSO yielding 7 final concentrations encompassing a 700-fold concentration range.
Reactions were initiated by the addition of a 10 μL aliquot of the enzyme, and the absorbance increase at 405 nm is continuously recorded for 15 minutes in a Molecular Devices plate reader. Final DMSO concentration was 4.3%. […] The ratio of the velocity (rate of change in absorbance as a function of time) for a sample containing no test compound is divided by the velocity of a sample containing test compound, and is plotted as a function of test compound concentration. The data are fit to a linear regression, and the value of the slope of the line calculated. The inverse of the slope is the experimentally determined Ki value.

Ki | Compound
6 to 23 nM | CCOC(=O)c1cccc(-c2cccc(S(=O)(=O)c3cc(C(=N)N)sc3SC)c2)c1 [Example 102, 3′-(5-carbamimidoyl-2-methylsulfanyl-thiophene-3-sulfonyl)-biphenyl-3-carboxylic acid ethyl ester]
6 to 23 nM | CSc1sc(C(=N)N)cc1S(=O)(=O)c1cccc(-c2c(C)cccc2NC(=O)NCCCc2ccccc2)c1 [Example 203, 4-{6′-Methyl-2′-[3-(3-phenyl-propyl)-ureido]-biphenyl-3-sulfonyl}-5-methylsulfanyl-thiophene-2-carboxamidine trifluoroacetate]
6 to 23 nM | CSc1sc(C(=N)N)cc1S(=O)(=O)c1cccc(-c2ccc(F)cc2)c1 [Example 81, 4-(4′-Fluoro-biphenyl-3-sulfonyl)-5-methylsulfanyl-thiophene-2-carboxamidine]
6 to 23 nM | CSc1sc(C(=N)N)cc1S(=O)(=O)c1cccc(-c2cncnc2)c1 [Example 71, 5-Methylsulfanyl-4-(3-pyrimidin-5-yl-benzenesulfonyl)-thiophene-2-carboxamidine]
6 to 23 nM | COC(=O)c1ccc(-c2cccc(S(=O)(=O)c3cc(C(=N)N)sc3SC)c2)cc1 [Example 74, 3′-(5-Carbamimidoyl-2-methylsulfanyl-thiophene-3-sulfonyl)-biphenyl-4-carboxylic acid methyl ester]
6 to 23 nM | CSc1sc(C(=N)N)cc1S(=O)(=O)c1cccc(-c2ccc(OC(F)(F)F)cc2)c1 [Example 55, 5-Methylsulfanyl-4-(4′-trifluoromethoxy-biphenyl-3-sulfonyl)-thiophene-2-carboxamidine]
6 to 23 nM | CSc1sc(C(=N)N)cc1S(=O)(=O)c1cccc(-c2cccc(CO)c2)c1 [Example 64, 4-(3′-Hydroxymethyl-biphenyl-3-sulfonyl)-5-methylsulfanyl-thiophene-2-carboxamidine]
6 to 23 nM | CSc1sc(C(=N)N)cc1S(=O)(=O)c1cccc(-c2ccc(-c3ccccc3)c(F)c2)c1 [Example 82, 4-(2′-Fluoro-[1,1′;4′,1″]terphenyl-3″-sulfonyl)-5-methylsulfanyl-thiophene-2-carboxamidine]
6 to 23 nM | CSc1sc(C(=N)N)cc1S(=O)(=O)c1cccc(-c2cc(CO)ccc2C)c1 [Example 7, 4-(5′-Hydroxymethyl-2′-methyl-biphenyl-3-sulfonyl)-5-methylsulfanyl-thiophene-2-carboxamidine trifluoroacetate]
6 to 23 nM | CSc1sc(C(=N)N)cc1S(=O)(=O)c1cccc(-c2ccc3[nH]cnc3c2)c1 [Example 106, 4-[3-(1H-benzoimidazol-5-yl)-benzenesulfonyl]-5-methylsulfanyl-thiophene-2-carboxamidine]
6 to 23 nM | CSc1sc(C(=N)N)cc1S(=O)(=O)c1cccc(-c2cc3ccccc3o2)c1 [Example 49, 4-(3-Benzofuran-2-yl-benzenesulfonyl)-5-methylsulfanyl-thiophene-2-carboxamidine]
6 to 23 nM | CSc1sc(C(=N)N)cc1S(=O)(=O)c1cnc(N)c(-c2ccccc2C)c1 [Example 121, 4-(6-Amino-5-o-tolyl-pyridine-3-sulfonyl)-5-methylsulfanyl-thiophene-2-carboxamidine]
6 to 23 nM | CSc1sc(C(=N)N)cc1S(=O)(=O)c1cccc(-c2cccc(C(N)=O)c2)c1 [Example 104, 3′-(5-carbamimidoyl-2-methylsulfanyl-thiophene-3-sulfonyl)-biphenyl-3-carboxylic acid amide]
6 to 23 nM | CSc1sc(C(=N)N)cc1S(=O)(=O)c1cccc(-c2c(C)cccc2NC(=O)CS(C)(=O)=O)c1 [Example 257, N-[3′-(5-Carbamimidoyl-2-methylsulfanyl-thiophene-3-sulfonyl)-6-methyl-biphenyl-2-yl]-2-methanesulfonyl-acetamide trifluoroacetate]
6 to 23 nM | CSc1sc(C(=N)N)cc1S(=O)(=O)c1cccc(-c2ccc(NC(N)=O)cc2C)c1 [Example 228, 5-Methylsulfanyl-4-(2 ′-methyl-4′-ureido-biphenyl-3-sulfonyl)-thiophene-2-carboxamidine trifluoroacetate]
6 to 23 nM | COc1ccc(-c2cccc(S(=O)(=O)c3cc(C(=N)N)sc3SC)c2)c(OC)c1 [Example 41, 4-(2′,4′-Dimethoxy-biphenyl-3-sulfonyl)-5-methylsulfanyl-thiophene-2-carboxamidine]
6 to 23 nM | CSc1sc(C(=N)N)cc1S(=O)(=O)c1cccc(-c2ccc(CO)cc2)c1 [Example 83, 4-(4′-hydroxymethyl-biphenyl-3-sulfonyl)-5-methylsulfanyl-thiophene-2-carboxamidine]
6 to 23 nM | CSc1sc(C(=N)N)cc1S(=O)(=O)c1cccc(-c2c(C)cc(O)cc2C)c1 [Example 224, 4-(4′-Hydroxy-2′,6′-dimethyl-biphenyl-3-sulfonyl)-5-methylsulfanyl-thiophene-2-carboxamidine trifluoroacetate]
6 to 23 nM | CSc1sc(C(=N)N)cc1S(=O)(=O)c1cccc(-c2cccc(C(=O)N(C)C)c2)c1 [Example 103, 3′-(5-carbamimidoyl-2-methylsulfanyl-thiophene-3-sulfonyl)-biphenyl-3-carboxylic acid dimethylamide]
6 to 23 nM | CSc1sc(C(=N)N)cc1S(=O)(=O)c1cc(Br)c2c(c1)ncn2Cc1cc(F)ccc1F [Example 275, 4-[7-Bromo-1-(2,5-difluoro-benzyl)-1H-benzoimidazole-5-sulfonyl]-5-methylsulfanyl-thiophene-2-carboxamidine trifluoroacetate]
6 to 23 nM | CSc1sc(C(=N)N)cc1S(=O)(=O)c1cccc(-c2cccnc2Cl)c1 [Example 10, 4-[3-(2-Chloro-pyridin-3-yl)-benzenesulfonyl]-5-methylsulfanyl-thiophene-2-carboxamidine; bis-trifluoroacetate]
6 to 23 nM | CSc1sc(C(=N)N)cc1S(=O)(=O)c1cccc(-c2ccc(C#N)cc2)c1 [Example 84, 4-(4′-cyano-biphenyl-3-sulfonyl)-5-methylsulfanyl-thiophene-2-carboxamidine]
6 to 23 nM | CSc1sc(C(=N)N)cc1S(=O)(=O)c1cccc(-c2ccc(O)c(C=O)c2)c1 [Example 26, 4-(3′-Formyl-4′-hydroxy-biphenyl-3-sulfonyl)-5-methylsulfanyl-thiophene-2-carboxamidine trifluoroacetate]
6 to 23 nM | CSc1sc(C(=N)N)cc1S(=O)(=O)c1cccc(-c2ccc(N(C)C(=N)N)cc2C)c1 [Example 262, 4-[2′-Methyl-4′-(N-methyl-guanidino)-biphenyl-3-sulfonyl]-5-methylsulfanyl-thiophene-2-carboxamidine bis-trifluoroacetate]
6 to 23 nM | CSc1sc(C(=N)N)cc1S(=O)(=O)c1cccc(-c2c(C)cccc2NC(=O)NCCc2ccccc2)c1 [Example 242, 4-[2′-Methyl-6′-(3-phenethyl-ureido)-biphenyl-3-sulfonyl]-5-methylsulfanyl-thiophene-2-carboxamidine trifluoroacetate]
6 to 23 nM | CSc1sc(C(=N)N)cc1S(=O)(=O)c1cccc(-c2ccc(NC(=N)NCCCCCC(=O)O)cc2C)c1 [Example 263, 6-{N′-[3′-(5-Carbamimidoyl-2-methylsulfanyl-thiophene-3-sulfonyl)-2-methyl-biphenyl-4-yl]-guanidino}-hexanoic acid]
6 to 23 nM | CSc1sc(C(=N)N)cc1S(=O)(=O)c1cccc(-c2ccc(F)cc2C)c1 [Example 219, 4-(4′-Fluoro-2′-methyl-biphenyl-3-sulfonyl)-5-methylsulfanyl-thiophene-2-carboxamidine trifluoroacetate]
6 to 23 nM | CCOc1ccc(-c2cccc(S(=O)(=O)c3cc(C(=N)N)sc3SC)c2)cc1 [Example 88, 4-(4′-ethoxy-biphenyl-3-sulfonyl)-5-methylsulfanyl-thiophene-2-carboxamidine]
6 to 23 nM | COC(=O)CCSCC(=O)Nc1cc(NC(=N)N)cc(C)c1-c1cccc(S(=O)(=O)c2cc(C(=N)N)sc2SC)c1 [Example 238, 3-{[3′-(5-Carbamimidoyl-2-methylsulfanyl-thiophene-3-sulfonyl)-4-guanidino-6-methyl-biphenyl-2-ylcarbamoyl]-methylsulfanyl}-propionic acid methyl ester bis-trifluoroacetate]

Compound | Ki
CSc1sc(C(=N)N)cc1S(=O)(=O)c1cccc(-c2cccc(O)c2)c1 [Example 35, 4-(3′-Hydroxy-biphenyl-3-sulfonyl)-5-methylsulfanyl-thiophene-2-carboxamidine trifluoroacetate] | 6 to 23 nM
